Test results from patent publication US12377110B2, “Fospropofol methods and compositions” (Epalex Corporation, priority 2019, dated 2025).

Assays:
[1] = Linear regression of log fospropofol/propofol exposure (Cmax, AUC1, AUC2, AUC4) on time-to-treatment, migraine subjects vs healthy volunteers
Text: (§1) Values for healthy volunteers are shown on the left.
as §1
Values for healthy Volunteers are shown on the left.
as §1, §1, §1

[2] = Study No. 15-3 toxicokinetics of fospropofol and propofol in plasma; assay type: in vivo, Sprague-Dawley rats; details: for AUC(0-t): Propofol AUC0-6 hr
Protocol: The purpose of Study No. 15-3 (GLP) was to determine the potential toxicity of fospropofol in Sprague-Dawley rats when administered once daily by oral gavage for 14 days. […] The cause of death for the three 250 mg/kg/day group main study females found dead could not be determined, but was considered related to the pharmacodynamic effects of fospropofol, based on the time of death relative to the time of close administration, and the clinical signs recorded before death. Clinical observations during the closing period for these animals included labored breathing, prostrate, splayed hindlimbs, uncoordinated movement, decreased activity, and eyes closed.

[3] = Study A17: PK of fospropofol and propofol after single oral dose of fospropofol disodium 800 mg in subjects with migraine
Protocol: The study is planned to complete approximately 85 subjects. • Enrolled subjects will be asked to come to the study site for treatment when they experience a qualifying migraine headache. Dosing must occur within 4 hours after onset of the migraine symptoms. If treatment at the study site is not feasible or practicable within 4 hours after onset of migraine symptoms, subjects should use their usual medication for that headache and attempt to visit the clinic for treatment as soon as possible (within 4 hours) after onset of their next migraine headache. Dosing must occur within 60 days after enrollment (see Post-enrollment Period below). • At clinic check-in for treatment, study personnel will verify eligibility for closing regarding the criteria for a qualifying headache and adherence to post-enrollment study restrictions (see Eligibility for Dosing below). • Treatment will consist of a single oral dose of fospropofol disodium. […] Because the prevalence of migraine headaches is higher in women than in men, efforts will be made to enroll at least 50% women. • Subjects must meet the general inclusion and exclusion criteria listed below (Inclusion Criteria and Exclusion Criteria) at screening to be enrolled in the study. To be eligible for fospropofol disodium treatment after onset of a migraine headache, enrolled subjects must meet criteria specific to the presenting headache at clinic check-in (see Qualifying Headache below) and adhere to study restrictions specific to the period between enrollment and clinic check-in (see Post-enrollment Restrictions below). • Inclusion Criteria Subjects must meet all of the following criteria at screening to be enrolled in the study: • 1. Written informed consent approved by the Institutional Review Board (IRB) given before any study-related procedures are performed • 2. […] Complete abstinence alone can be used as a method of contraception. • 6. […] Able to comprehend the nature of the study, capable of giving written informed consent, and able to communicate effectively with clinic staff (as assessed by the investigator) • 8. Available to volunteer for the entire study duration and willing to adhere to all protocol requirements, including the post-enrollment restrictions (see Post-enrollment Restrictions below) • 9. Agrees not to post any information related to the study on any website or social media site (e.g., Facebook, Twitter, LinkedIn, Google+, etc.) until the entire trial has been completed • 10. Willing to forgo rescue medicine for at least 2 hours after initiation of treatment with study drug (see In-Clinic Rescue Medicine) • Exclusion Criteria Subjects to whom any of the following criteria apply at screening will be excluded: • 1. History of hemiplegic migraine (at any time in the past). • 2. History of headaches of any type occurring on ≥15 days/month during any of the 3 months prior to screening. • 3.

[4] = Study No. 15-2 (non-GLP): MTD and 7-day once daily oral gavage toxicity of fospropofol disodium; assay type: in vivo, Beagle dogs; details: dog, in vivo, Beagle dogs
Beagle dogs = experiment: as above; assay type: in vivo

SMILES: CC(C)c1cccc(C(C)C)c1O [propofol, 2,6-diisopropylphenol]
- p of inverse linear association between log of the ratio AUC1 propofol to AUC1 fospropofol and time-to-treatment ([1]; migraine subjects): 0.150
- p of inverse linear association between log of the ratio AUC2 propofol to AUC2 fospropofol and time-to-treatment ([1]; migraine subjects): 0.157
- p of difference in distribution of log of the ratio AUC1 propofol to AUC1 fospropofol between migraine subjects and healthy volunteers ([1]; migraine subjects vs healthy volunteers): 0.0367
- Increase of propofol Cmax and AUC0-6hr with fospropofol dose ([2]; Days 1 and 14): approximately close-proportional
- Propofol AUC0-6hr following repeated administration ([2]; female rats): appeared to increase
- Propofol AUC0-6hr following repeated administration ([2]; male rats): did not appear to change
- AUC(0-t) ([2]; male, Sprague-Dawley, rat, plasma, po, 50 mg/kg, oral gavage fospropofol disodium, Male, 50 mg/kg, Day 1): 219 ng·h/mL
- AUC(0-t) ([2]; male, Sprague-Dawley, rat, plasma, po, 50 mg/kg, oral gavage fospropofol disodium, Male, 50 mg/kg, Day 14): 416 ng·h/mL
- Cmax ([2]; male, Sprague-Dawley, rat, plasma, po, 50 mg/kg, Propofol Cmax, oral gavage fospropofol disodium, Male, 50 mg/kg, Day 14): 301 ng/mL
- Tmax ([2]; male, Sprague-Dawley, rat, plasma, po, 50 mg/kg, Propofol Tmax, oral gavage fospropofol disodium, Male, 50 mg/kg, Day 14): 15 min
- Dependence of systemic exposure on sex ([2]; rats, 14 days oral gavage fospropofol disodium): greater exposure in females
- Variability in propofol log AUC1 accounted for by time-to-treatment ([3]; 800 mg, 11 migraine subjects): ~63%
- Variability in propofol log AUC2 accounted for by time-to-treatment ([3]; 800 mg, 11 migraine subjects): ~55%
- Variability in propofol log AUC4 accounted for by time-to-treatment ([3]; 800 mg, 11 migraine subjects): ~40%
- Variability in propofol log Cmax accounted for by time-to-treatment ([3]; 800 mg, 11 migraine subjects): ~57%
- Association between time-to-treatment and log propofol Cmax, AUC1, AUC2, AUC4 ([3]; 800 mg, 11 migraine subjects (all female)): statistically significant inverse association
- Decrease of geometric mean propofol AUC1 per hour of delay in time-to-treatment ([3]; 800 mg, linear regression): 67.2 % per hour
- Decrease of geometric mean propofol AUC1 per minute of delay in time-to-treatment ([3]; 800 mg, linear regression): 1.84 % per minute
- Decrease of geometric mean propofol AUC2 per hour of delay in time-to-treatment ([3]; 800 mg, linear regression): 62.5 % per hour
- Decrease of geometric mean propofol AUC2 per minute of delay in time-to-treatment ([3]; 800 mg, linear regression): 1.62 % per minute
- Decrease of geometric mean propofol AUC4 per hour of delay in time-to-treatment ([3]; 800 mg, linear regression): 47.7 % per hour
- Decrease of geometric mean propofol AUC4 per minute of delay in time-to-treatment ([3]; 800 mg, linear regression): 1.08 % per minute
- Decrease of geometric mean propofol Cmax per hour of delay in time-to-treatment ([3]; 800 mg, linear regression): 58.5 % per hour
- Decrease of geometric mean propofol Cmax per minute of delay in time-to-treatment ([3]; 800 mg, linear regression): 1.45 % per minute
- Ratio of mean propofol Auc4, migraine subjects (all female) to female healthy volunteers ([3]; Study A17 vs. Study A16 800 mg Cohort, females only): 91%

SMILES: CC(C)c1cccc(C(C)C)c1OCOP(=O)([O-])O.[Na+] [fospropofol disodium]
- MTD at 7 days [4]: 160 mg/kg/day
- MTD (Beagle dogs; Beagle dogs): 3200 mg/m^2/day
- Tolerability (Beagle dogs; single fospropofol doses up to 120 mg/kg or 120 and 160 mg/kg/day once daily for 7 days): tolerated at all closes with no mortality or adverse findings
